The test system of one assay is Drosophila. The settings on record: feeding Drosophila; cited from earlier work.
The subject of another assay is flies. The settings on record: administered orally to flies; cited from earlier work.
A further assay deals with wild-type flies. Nature of the assay: Motion tracking with wild-type flies. The class given is in vivo, Drosophila. The settings on record: flies fed 0.1M or 0.05M LiCl, compared to controls; FIG. 32. Here is the method:
(§1) Each movie is first scored individually to give one value per score and movie. A single movie is therefore considered to be the experimental base unit. Thereafter average values and standard errors for all scores are calculated from the movie score values for all repeats for a vial. Those averages and standard errors are the values shown in the PhenoScreen program. The data that is used in the scoring process are the trajectories of the corresponding movie. Each trajectory consists of a list of x- and y-coordinates of the position of the fly (and also size), with one list entry for every frame from when it starts moving in one frame until it stops in another.
Speed: The Speed score is calculated in the same way as the X-Speed score, but instead of only using the length of the x-component of the speed vector, the length of the whole vector is used. That is, [length]=square root of ([x-length]^2+[y-length]^2).
Turning: The Turning score is calculated in the same way as the Speed score, but instead of using the length of the speed vector, the absolute angle between the current speed vector and the previous one is used, giving a value between […].
Stumbling: The Stumbling score is calculated in the same way as the Speed score, but instead of using the length of the speed vector, the absolute angle between the current speed vector and the direction of body orientation is used, giving a value between 0 and 90 degrees.
Several sets of wild-type flies were assayed under various conditions to test the motion tracking software. Lithium Chloride (LiCl), a treatment for bipolar affective disorder in humans, is also known to induce behavioral changes in Drosophila (Xia et al., 1997). […] The results of this assay are shown in the bar graph of FIG. 32.

Assay [1] relates to Drosophila expressing a mutant form of human Huntington (HD). Description: Motion tracking with Drosophila model of Huntington disease. The settings on record: HD flies with drug versus wt flies. The class given is in vivo. Here is the method: as §1
Cross150: The Cross150 score is the number of trajectories that either crossed the line at x=150 in the negative x-direction (from bottom to top of the vial) during the movie, or that were already above that line at the start of the movie. […] In other words this score measures the number of detected flies that either managed to hold on to the tube or that managed to climb above the x=150 line within the length of the movie.
Drosophila expressing a mutant form of human Huntington (HD) have a functional deficit that is quantifiable, reproducible, and is suitable for automated high-throughput screening. Drosophila (or specimen) movements can be analyzed for various characteristics and/or traits. […]

On to 4-phenylbutyrate [PBA], for which, in the assay with Drosophila, the lifespan result was “significantly increase” and the locomotor vigor entry is listed as “without diminution”.
For `NCC1(CC(=O)O)CCCCC1` [Gabapentin], in the assay on flies, the “mean recovery times following seizure” value is on record as “reduce” and the seizure entry is on record as “reduce”.
Turning to `[Cl-].[Li+]` [LiCl, Lithium Chloride], in the assay with wild-type flies, the incidence of stumbling result is listed as “increase incidence”, the incidence of turning result is “increase incidence” and the speed result was “significant reduction”.
As for `O=C1NC(=O)C(c2ccccc2)(c2ccccc2)N1` [Phenyloin], in the assay with flies, the “mean recovery times following seizure” value was “reduce” and the seizure result is recorded as “reduce”.
Turning to `CC(/C=C/C(=O)NO)=C\[C@@H](C)C(=O)c1ccc(N(C)C)cc1` [TSA], in assay [1], the climbing ability result is reported as “restore climbing ability for HD flies to almost the same level as for wt flies” and the “speed restored to wt level” value is on record as “the same is not true for speed”.
As to `CC1(C)O[C@@H]2[C@@H](CO[C@@]3(COS(N)(=O)=O)OC(C)(C)O[C@@H]23)O1` [Topiramate], in the assay on flies, the “mean recovery times following seizure” value is on record as “reduce” and the seizure entry is reported as “reduce”.

(Values after patent US20040076999A1, “Computer user interface facilitating acquiring and analyzing of biological specimen traits” (Baylor College of Medicine, priority 2002, published 2004).)
